“And” between values parts separate entries of the source, which are not always exact repeats. Equal values may be shown once. Read-outs that look alike come from different tables or passages of the source.
Assays:
[1] = target: MRGPRX4 S83L (L83) (Homo sapiens, UniProt Q96LA9); assay: PRESTO-Tango β-arrestin recruitment assay, HTLA cells stably expressing S83L MRGPRX4; assay type: cell-based; conditions: single replicate
Experimental: HTLA cells, a cell line derived from HEK293 and engineered to stably express a tTA-dependent luciferase reporter and a β-arrestin2-TEV fusion gene, were generously provided by Richard Axel's laboratory. HTLA cells were cultured in growth medium containing 2 μg/ml puromycin and 100 μg/ml hygromycin B in 5% CO2 at 37 °C. Stably MRGPRX4-expressing HTLA cells were generated by transfecting pcDNA3.1(+)-Zeo containing MRGPRX4-Tango construct (either with WT or S83L mutant sequence) into HTLA cells with Lipofectamine 3000 and selecting the successful transfected clones with Zeocin.
HTLA cells stably expressing either WT or S83L MRGPRX4 were seeded in PDL-coated 96-well white clear bottom cell culture plates with DMEM containing 10% FBS, at a density of 35,000 cells per well and were allowed to attach to the bottom of the wells overnight. The next day, growth medium was replaced with 100 μl of serum-free medium containing the tested drugs at various concentrations, and the cells were then incubated at 37°C for 24 h. On the following day, media with drug solutions was removed and 50 μl per well of Bright-Glo™ Reagent from Bright-Glo™ Luciferase Assay System (Promega) was loaded. The plate was incubated at room temperature in the dark for 5 min, and the relative luminescence units were measured using the Flexstation-3 instrument with SoftMax®Pro 7.1 software (Molecular Devices). Dose response curves and EC50s were analyzed as described above.
MRGPRX4 by β-arrestin (Tango) recruitment assay. Data are from three independent experiments,
performed in triplicate, and depicted as mean ± SEM.

[2] = test system: WT NP1-3 DRG neurons; assay: GCaMP6s calcium imaging of NP1-3 DRG neurons from Pirt-Cre; Rosa-lsl-GCaMP6s mice; assay type: cell-based, mouse; conditions: 10 µM
Experimental: Murine DRGs (from both male and female) were harvested from all spinal segments and digested in dispase (5 mg/ml) / type I collagenase (1 mg/ml) enzyme mix at 37 °C for an hour. Enzyme mix was replaced with complete DH10 media (90% DMEM/F12, 10% FBS, penicillin (100 units/ml), and streptomycin (100 μg/ml)) and gently triturated with 1 ml pipette tip until the media turned cloudy without visible tissue chunks. Dissociated tissues were filtered through a 70 μm filter and spun down 1250 rpm for 5 min at RT. Supernatant was removed and the cell pellet was resuspended in complete DH10 media. Cell suspension was then added on top of poly-D-lysine- and laminin-coated coverslips and sat for 1–2 h at 37°C. Complete DH10 media supplemented with NGF (50 ng/ml) was then added into the vessel. Neurons were allowed to recover overnight at 37°C for the next-day calcium imaging experiment.
Calcium imaging data was collected with a Nikon Eclipse TE 200 microscope. Time series GCaMP6 fluorescence intensity was acquired through the FITC/GFP channel. […] Neurons with GCaMP6 signal rose above 50% of the baseline intensity after compound application were counted as positive responders and the percentage of responding neurons was calculated. […]
(top) and individual (bottom) calcium activity, measured by fluorescence intensity normaliz ed to […]
activity from the recorded neurons is shown in heatmap. […]

[3] = target: T1, MRGPRX4 R95A (Homo sapiens, UniProt Q96LA9, L83S/R95A); assay: Calcium mobilization assay (FLIPR), MRGPRX4 R95A mutant; assay type: cell-based
T1 construct: expressed in transfected cells; host or cells: HEK293T, transient
T1 sequence (Q96LA9 whole entry L83S/R95A): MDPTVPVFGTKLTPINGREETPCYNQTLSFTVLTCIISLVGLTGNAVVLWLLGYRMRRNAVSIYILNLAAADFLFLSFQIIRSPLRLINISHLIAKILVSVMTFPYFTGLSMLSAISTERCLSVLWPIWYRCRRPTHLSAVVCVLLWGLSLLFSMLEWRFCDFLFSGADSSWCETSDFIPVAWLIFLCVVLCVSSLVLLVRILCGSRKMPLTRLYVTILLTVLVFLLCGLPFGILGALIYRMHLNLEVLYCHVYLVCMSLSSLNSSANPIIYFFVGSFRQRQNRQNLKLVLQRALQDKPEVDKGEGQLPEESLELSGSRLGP
Source text: (§1) Fig. 3. […] (A) Cryo-EM density map of MRGPRX4-Gq in complex with fospropofol. (B) The density map of fospropofol and R82 of MRGPRX4. (C and D) Key molecular interactions between fospropofol and the hydrophilic (C) and hydrophobic (D) part of the agonist binding pocket of MRGPRX4. Amino acid residues interacting with fospropofol are shown as sticks. Hydrogen bond is shown as cyan dashed lines. […] Data are from at least three independent experiments, each performed in triplicate, and reported as the mean ± SEM. (E) and (F) were collected from the same sets of experiments.
(§2) To generate murine Mrgprs expressing cells, HEK293T cells (ATCC) were seeded on poly-D-lysine coated 96 well plate at 25,000 cells per well one day prior to transfection. HEK293T cells were transiently co-transfected with the mammalian expression plasmids carrying cDNA encoding the murine Mrgpr genes and plasmid inserted with cDNA encoding murine α-subunit of the heterotrimeric G15 protein (Gα15) in triplicates using Lipofectamine LTX reagents (Thermo Scientific). To generate WT, S83L, and alanine mutant MRGPRX4-expressing cells, HEK293T cells were seeded on poly-D-lysine coated 384 well plate at 12,000 cells per well one day prior to transfection. […]

[4] = target: T2, MRGPRX4 Y250A (Homo sapiens, UniProt Q96LA9, L83S/Y250A); assay: Calcium mobilization assay (FLIPR), MRGPRX4 Y250A mutant; assay type: cell-based
T2 construct: expressed in transfected cells; host or cells: HEK293T, transient
T2 sequence (Q96LA9 whole entry L83S/Y250A): as the sequence (Q96LA9 whole entry L83S/R95A) above, with A95R, Y250A counted along it
Source text: as §1, §2

[5] = target: T3, MRGPRX4 Y254A (Homo sapiens, UniProt Q96LA9, L83S/Y254A); assay: Calcium mobilization assay (FLIPR), MRGPRX4 Y254A mutant; assay type: cell-based; conditions: for Calcium mobilization response, dose-response replicate data (Fig. 3E and 3F): Y254A
T3 construct: expressed in transfected cells; host or cells: HEK293T, transient
T3 sequence (Q96LA9 whole entry L83S/Y254A): as the sequence (Q96LA9 whole entry L83S/R95A) above, with A95R, Y254A counted along it
Source text: as §1
To generate murine Mrgprs expressing cells, HEK293T cells (ATCC) were seeded on poly-D-lysine coated 96 well plate at 25,000 cells per well one day prior to transfection. HEK293T cells were transiently co-transfected with the mammalian expression plasmids carrying cDNA encoding the murine Mrgpr genes and plasmid inserted with cDNA encoding murine α-subunit of the heterotrimeric G15 protein (Gα15) in triplicates using Lipofectamine LTX reagents (Thermo Scientific). To generate WT, S83L, and alanine mutant MRGPRX4-expressing cells, HEK293T cells were seeded on poly-D-lysine coated 384 well plate at 12,000 cells per well one day prior to transfection. Mammalian expression plasmids pLX304 (vector from Addgene) carrying different MRGPRX4 coding sequences were transiently transfected into HEK293T cells in triplicates with Lipofectamine LTX reagents (Thermo Scientific). Intracellular calcium mobilization assays were performed after one day of transfection. Murine Mrgprs tested include Mrgpra1, Mrgpra2a, Mrgpra2b, Mrgpra3, Mrgpra4, Mrgpra6, Mrgpra9, Mrgpra10, Mrgpra11, Mrgpra12, Mrgpra14, Mrgprb5, Mrgprb6, Mrgprb10, Mrgprb11, and Mrgprc11. WT and mutant MRGPRX4 constructs tested include WT, S83L, R82A, R86A, R95A, W158A, Y250A, and Y254A.
To generate MRGPRX4 mutant constructs, site-directed mutagenesis was performed using Q5® Site-Directed Mutagenesis Kit (New England Biolabs). The primers were designed by the NEBaseChanger tool, with forward primers spanning designated mutated sequence corresponding to the desired amino acid substitutions. The plasmids with WT MRGPRX4 sequence served as the templates for polymerase chain reaction (PCR) amplification with Q5 high-fidelity polymerase and respective primer pairs according to the manufacturer’s conditions. Then, the linear PCR products underwent phosphorylation, ligation, and simultaneous degradation of template DNA by incubating them with a KLD enzyme mix consisting of T4 polynucleotide kinase, T4 DNA ligase, and DpnI at room temperature for 5 min. Subsequently, the mutated circular plasmids were transformed into NEB 5-alpha competent E. coli by heat-shock method, and the successfully transformed bacteria were selected on LB plates with selection antibiotics. The next day, the transformant colonies were picked, expanded in LB broth containing selection antibiotics overnight. Plasmids were isolated using QIAprep Spin Miniprep Kit (Qiagen) and subjected to sequencing to confirm the mutation.

[6] = test system: mock; assay: Calcium mobilization assay (FLIPR), mock-transfected control cells (Fig. 3E and 3F); assay type: cell-based
[7] = cited from earlier work

Chain of MRGPRX4 S83L (L83) (Q96LA9 whole entry, stated change not applied, the tested form may be a part): as the sequence (Q96LA9 whole entry L83S/R95A) above, with S83L, A95R counted along it

SMILES: O=C1NC(c2ccccc2)(c2ccccc2)C(=O)N1COP(=O)(O)O [Fosphenytoin]
- fig. S7 response (raw signal), concentration-response ([1]; 3.91e-6 M): 13508.2
- fig. S7 response (raw signal), concentration-response ([1]; 7.81e-6 M): 22144.4
- Activation of NP1–3 neuron populations [2]: few neurons were activated
- Calcium mobilization response at alanine mutant R95A vs WT [3]: either greatly attenuated or abolished
- Calcium mobilization response at alanine mutant Y250A vs WT [4]: disrupted calcium mobilization
- Calcium mobilization response at alanine mutant Y254A vs WT [5]: disrupted calcium mobilization
- Calcium mobilization response, dose-response replicate data (Fig. 3E and 3F) ([5]; concentration 188 pM): 6.602 and -1.3205 and -9.574 and 20.2858 and 13.0936 and 9.774 and -0.7431 and 13.747
- Calcium mobilization response, dose-response replicate data (Fig. 3E and 3F) ([5]; concentration 565 pM): 20.4677 and 20.7978 and 5.942 and 10.3273 and 0.3688 and 21.3924 and 9.2885 and 13.5241
- Calcium mobilization response, dose-response replicate data (Fig. 3E and 3F) ([5]; concentration 1.69e-9 M): 15.8459 and 12.5447 and -5.6121 and 28.0313 and 20.8391 and 13.6468 and 20.2118 and 18.4284
- Calcium mobilization response, dose-response replicate data (Fig. 3E and 3F) ([5]; concentration 5.08e-9 M): 23.7689 and 10.8941 and -0.3301 and 18.6261 and 10.3273 and 20.8391 and 13.5241 and 11.5177
- Calcium mobilization response, dose-response replicate data (Fig. 3E and 3F) ([5]; concentration 1.52e-8 M): 15.8459 and 17.8267 and 10.564 and 26.3716 and 23.6054 and 16.9663 and 20.8805 and 19.7659
- Calcium mobilization response, dose-response replicate data (Fig. 3E and 3F) ([5]; concentration 4.57e-8 M): 19.1472 and 14.8556 and 8.913 and 19.1793 and 12.5403 and 20.2858 and 17.7596
- Calcium mobilization response, dose-response replicate data (Fig. 3E and 3F) ([5]; concentration 1.37e-7 M): 18.8171 and 31.3618 and 9.243 and 27.4781 and 26.9248 and 21.3924 and 19.3201
- Calcium mobilization response, dose-response replicate data (Fig. 3E and 3F) ([5]; concentration 4.12e-7 M): 18.4869 and 19.4773 and 3.301 and 26.9248 and 12.5403 and 32.4573 and 12.4094
- Calcium mobilization response, dose-response replicate data (Fig. 3E and 3F) ([5]; concentration 1.23e-6 M): 21.1279 and 18.1568 and 6.272 and 32.4573 and 21.9456 and 23.0521 and 14.8616 and 16.645
- Calcium mobilization response, dose-response replicate data (Fig. 3E and 3F) ([5]; concentration 3.7e-6 M): 15.5158 and 10.2338 and 7.923 and 31.3509 and 13.0936 and 21.9456 and 13.9699 and 13.3011
- Calcium mobilization response, dose-response replicate data (Fig. 3E and 3F) ([5]; concentration 1.11e-5 M): 7.923 and -1.651 and 1.651 and 24.1586 and 18.0728 and 21.9456 and 2.8237 and 17.9825
- Calcium mobilization response, dose-response replicate data (Fig. 3E and 3F) ([5]; concentration 3.33e-5 M): 5.942 and 0.9904 and -9.904 and 16.4131 and 10.3273 and 31.3509 and 7.059 and 4.161
- Calcium mobilization response, dose-response replicate data (Fig. 3E and 3F) ([5]; concentration 0.0001 M): 1.651 and -5.282 and 12.5403 and 18.0728 and 14.2001 and 2.601 and 7.951
- Calcium mobilization response, dose-response replicate data (Fig. 3E and 3F) ([6]; concentration 188 pM): 2.751 and 6.052 and -2.532
- Calcium mobilization response, dose-response replicate data (Fig. 3E and 3F) ([6]; concentration 565 pM): 4.071 and -5.503 and 12.3245
- Calcium mobilization response, dose-response replicate data (Fig. 3E and 3F) ([6]; concentration 1.69e-9 M): 4.071 and 3.081 and -1.212
- Calcium mobilization response, dose-response replicate data (Fig. 3E and 3F) ([6]; concentration 5.08e-9 M): 3.411 and -2.202
- Calcium mobilization response, dose-response replicate data (Fig. 3E and 3F) ([6]; concentration 1.52e-8 M): -1.542 and -1.212 and -3.853
- Calcium mobilization response, dose-response replicate data (Fig. 3E and 3F) ([6]; concentration 4.57e-8 M): -2.532 and -6.494 and 5.722
- Calcium mobilization response, dose-response replicate data (Fig. 3E and 3F) ([6]; concentration 1.37e-7 M): -8.474 and 2.091 and 3.411
- Calcium mobilization response, dose-response replicate data (Fig. 3E and 3F) ([6]; concentration 4.12e-7 M): -2.202 and -3.522 and -0.2212
- Calcium mobilization response, dose-response replicate data (Fig. 3E and 3F) ([6]; concentration 1.23e-6 M): -8.474 and -1.212 and -3.1923
- Calcium mobilization response, dose-response replicate data (Fig. 3E and 3F) ([6]; concentration 3.7e-6 M): -6.824 and 3.081 and 0.4401
- Calcium mobilization response, dose-response replicate data (Fig. 3E and 3F) ([6]; concentration 1.11e-5 M): -13.7563 and -1.212 and 1.1003
- Calcium mobilization response, dose-response replicate data (Fig. 3E and 3F) ([6]; concentration 3.33e-5 M): -14.4165 and -16.3972 and -5.173
- Calcium mobilization response, dose-response replicate data (Fig. 3E and 3F) ([6]; concentration 0.0001 M): -29.6022 and -24.6503 and -24.9805
- Solubility relative to parent drug ([7]; vs phenytoin): 4500 fold

SMILES: CC(C)c1cccc(C(C)C)c1OCOP(=O)(O)O [Fospropofol]
- fig. S7 response (raw signal), concentration-response ([1]; 1.95e-8 M): 10514
- Activation of NP1–3 neuron populations [2]: few neurons were activated
- Calcium mobilization response at alanine mutant R95A vs WT [3]: either greatly attenuated or abolished
- Calcium mobilization response at alanine mutant Y250A vs WT [4]: disrupted calcium mobilization
- Calcium mobilization response at alanine mutant Y254A vs WT [5]: disrupted calcium mobilization
- Solubility relative to parent drug ([7]; vs propofol): 3000 fold
